Test results taken from patent US20120071475A1, “UREA DERIVATIVES HAVING PI3K-INHIBITING ACTIVITY” (SHIONOGI & CO., LTD., priority 2009, published 2012).
Converted amounts (≈) assume the structure as drawn. Like-named read-outs stand apart in the source and are kept apart here.

How the values were obtained:
PI3Kδ = PI3Kδ (Homo sapiens, UniProt O00329); assay: PI3Kδ inhibitory activity (Ki value); format: biochemical
Procedure: According to Example 2 above, after 80 μg/mL PI-3 kinase γ of the enzyme solution (80 μg/mL PI-3 kinase γ, 10 mmol/L MgCl2, 5 mmol/L DTT) was changed to 158 μg/mL PI-3 kinase δ, a method similar to the method for measuring PI3Kγ inhibitory activity was used to calculate an inhibition ratio, which was defined as the PI3Kδ inhibitory activity.
According to Example 4 above, a Km value for PI3Kδ was determined to calculate a Ki value.

CYP3A4 = target: T1, CYP3A4 (Homo sapiens, UniProt P08684); assay: CYP3A4 fluorescence MBI test; format: in vitro ADME; settings: difference in IC50 with 0 or 30 minutes pre-reaction; CYP3A4 expressed in E. coli, substrate 7-BFC
T1 construct: host or cells: E. coli
How it was run: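 E. coli-expressed CYP3A4 debenzylating 5.6 μmol/L 7-BFC to fluorescent 7-HFC (Ex 420/Em 535 nm) in K-Pi pH 7.4 at 25° C, 15 min reaction. NADPH pre-incubation of 0 or 30 min, with 10-fold dilution before reaction. IC50 from 0.625–20 μmol/L (6 points); (+) for an IC50 shift ≥5 μmol/L, (−) for ≤3 μmol/L.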

[1] = BA test (oral absorbability, bioavailability); format: in vivo
Procedure: An experimental material and a method for examining oral absorbability
(1) Animals used: rats or mice were used. (2) Breeding condition: chow and sterilized tap water were allowed to be taken in freely. (3) Setting of a dosage and grouping: a predetermined dosage was administered orally or intravenously. Groups were formed as shown below. (A dosage varied depending on each compound)
Oral administration 1-30 mg/kg (n=2 to 3)
Intravenous administration 0.5-10 mg/kg (n=2 to 3)
(4) Preparation of administered liquid: In oral administration, a solution or suspension was administered. In intravenous administration, after solubilization, the administration was performed. (5) Method of Administration: In oral administration, compulsory administration to the stomach was conducted using an oral probe. In intravenous administration, administration from the caudal vein was conducted using a syringe with an injection needle. (6) Evaluation item: Blood was chronologically collected, and then the drug concentration in blood plasma was measured using a LC/MS/MS. (7) Statistical analysis: With regard to a shift in plasma concentration, the plasma concentration-time area under the curve (AUC) was calculated using a nonlinear least-squares program WinNonlin®. Bioavailability (BA) was calculated from the AUCs of the oral administration group and the intravenous administration group, respectively.

[2] = target: T2, human ether-a-go-go related gene (hERG) channel (Homo sapiens, UniProt Q12809); assay: hERG test (whole-cell patch-clamp, IKr in HEK293 cells); format: cell-based; settings: inhibition of maximum tail current (IKr), HEK293 cell expressing hERG, compound 1 μM, 10 minutes; 1 µM
T2 construct: expressed in transfected cells; host or cells: HEK293
How it was run: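 hERG-expressing HEK293 cells, automated whole-cell patch clamp: hold −80 mV, +50 mV for 2 s, then −50 mV for 2 s to record IKr tail current. Compound in extracellular solution (pH 7.4) for 10 min at room temperature; inhibition of maximum tail current calculated versus pre-application and compared with 0.1% DMSO vehicle.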

[3] = Solubility test (artificial intestinal juice pH 6.8, 1% DMSO); format: physicochemical; settings: artificial intestinal juice pH 6.8 with 1% DMSO, fassgf or other biorelevant, kinetic from dmso stock, 25° C.
Procedure: The solubility of a compound was determined under a condition in which 1% DMSO was added. 10 mmol/L compound solution was prepared using DMSO, and then 6 μL of the compound solution was added to 594 μL of artificial intestinal juice in pH 6.8 (to 250 mL of 0.2 mol/L potassium dihydrogen phosphate reagent solution was added 118 mL of 0.2 mol/L NaOH reagent solution and water to provide a final volume of 1000 mL). After standing at 25° C. for 16 hours, the mixed solution was filtered with suction. The filtrate was diluted twice with methanol/water (1/1), and then a concentration in the filtration was measured with HPLC or LC/MS/MS by the absolute calibration method.

[4] = class symbols, read-out: PI3K δ Ki

PI3Kδ, sequence (O00329 whole entry, species assumed): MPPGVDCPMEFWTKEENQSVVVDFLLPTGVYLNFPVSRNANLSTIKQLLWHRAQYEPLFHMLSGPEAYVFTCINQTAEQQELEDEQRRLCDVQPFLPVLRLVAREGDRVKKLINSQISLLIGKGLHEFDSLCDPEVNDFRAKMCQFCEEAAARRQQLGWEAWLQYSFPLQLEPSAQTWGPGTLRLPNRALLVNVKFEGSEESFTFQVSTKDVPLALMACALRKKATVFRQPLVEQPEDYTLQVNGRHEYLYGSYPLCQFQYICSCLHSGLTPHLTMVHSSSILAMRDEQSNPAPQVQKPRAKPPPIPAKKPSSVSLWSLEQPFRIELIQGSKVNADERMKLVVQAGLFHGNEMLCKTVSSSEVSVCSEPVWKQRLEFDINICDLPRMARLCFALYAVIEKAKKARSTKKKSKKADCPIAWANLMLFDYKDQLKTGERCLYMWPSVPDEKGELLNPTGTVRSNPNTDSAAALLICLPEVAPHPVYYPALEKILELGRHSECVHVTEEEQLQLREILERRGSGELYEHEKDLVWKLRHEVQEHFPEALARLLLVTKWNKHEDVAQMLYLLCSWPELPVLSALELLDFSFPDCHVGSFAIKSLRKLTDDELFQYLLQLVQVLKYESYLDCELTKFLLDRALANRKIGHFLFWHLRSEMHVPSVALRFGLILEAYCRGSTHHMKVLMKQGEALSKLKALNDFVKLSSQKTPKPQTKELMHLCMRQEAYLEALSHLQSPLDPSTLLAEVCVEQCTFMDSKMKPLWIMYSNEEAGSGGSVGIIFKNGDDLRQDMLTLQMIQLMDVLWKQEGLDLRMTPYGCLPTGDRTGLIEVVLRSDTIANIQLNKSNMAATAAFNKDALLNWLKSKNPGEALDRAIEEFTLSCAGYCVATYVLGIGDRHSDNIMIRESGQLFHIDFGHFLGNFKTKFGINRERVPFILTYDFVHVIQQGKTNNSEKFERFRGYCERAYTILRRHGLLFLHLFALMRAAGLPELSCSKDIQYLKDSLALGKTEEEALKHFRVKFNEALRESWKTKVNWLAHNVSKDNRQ
PI3Kδ, sequence (P27986 whole entry partner, species assumed): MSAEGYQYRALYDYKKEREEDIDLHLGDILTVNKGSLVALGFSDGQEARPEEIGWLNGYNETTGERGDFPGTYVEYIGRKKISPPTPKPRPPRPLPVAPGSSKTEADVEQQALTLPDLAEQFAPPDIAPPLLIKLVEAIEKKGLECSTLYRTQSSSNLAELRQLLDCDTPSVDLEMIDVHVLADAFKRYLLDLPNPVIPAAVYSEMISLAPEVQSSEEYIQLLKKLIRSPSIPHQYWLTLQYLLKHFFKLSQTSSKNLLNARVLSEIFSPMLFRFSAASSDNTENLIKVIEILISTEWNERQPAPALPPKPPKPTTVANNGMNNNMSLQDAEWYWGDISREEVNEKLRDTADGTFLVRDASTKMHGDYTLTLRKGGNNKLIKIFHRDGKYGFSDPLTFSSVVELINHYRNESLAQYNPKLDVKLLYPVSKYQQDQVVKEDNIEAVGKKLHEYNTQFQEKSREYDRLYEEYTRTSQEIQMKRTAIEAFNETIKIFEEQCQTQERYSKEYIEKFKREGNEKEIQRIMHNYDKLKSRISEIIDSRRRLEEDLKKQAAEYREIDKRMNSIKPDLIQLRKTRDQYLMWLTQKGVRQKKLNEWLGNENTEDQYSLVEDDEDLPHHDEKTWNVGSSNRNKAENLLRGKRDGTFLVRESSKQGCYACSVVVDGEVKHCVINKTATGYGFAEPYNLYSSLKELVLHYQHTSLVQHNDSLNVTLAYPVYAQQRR
T1 sequence (P08684 whole entry): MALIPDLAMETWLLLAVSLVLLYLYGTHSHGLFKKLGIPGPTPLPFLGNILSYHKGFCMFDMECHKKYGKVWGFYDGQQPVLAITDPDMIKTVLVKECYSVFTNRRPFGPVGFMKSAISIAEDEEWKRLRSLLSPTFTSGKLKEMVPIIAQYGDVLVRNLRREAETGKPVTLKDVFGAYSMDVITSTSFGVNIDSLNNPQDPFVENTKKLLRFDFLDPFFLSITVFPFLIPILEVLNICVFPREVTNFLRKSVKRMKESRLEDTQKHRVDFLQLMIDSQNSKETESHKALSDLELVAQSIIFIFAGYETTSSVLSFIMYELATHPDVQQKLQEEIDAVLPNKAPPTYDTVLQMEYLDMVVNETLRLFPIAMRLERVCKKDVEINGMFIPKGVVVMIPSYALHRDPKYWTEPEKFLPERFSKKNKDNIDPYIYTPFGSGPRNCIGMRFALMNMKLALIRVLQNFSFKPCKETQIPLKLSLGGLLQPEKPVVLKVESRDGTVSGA
T2 sequence (Q12809 whole entry): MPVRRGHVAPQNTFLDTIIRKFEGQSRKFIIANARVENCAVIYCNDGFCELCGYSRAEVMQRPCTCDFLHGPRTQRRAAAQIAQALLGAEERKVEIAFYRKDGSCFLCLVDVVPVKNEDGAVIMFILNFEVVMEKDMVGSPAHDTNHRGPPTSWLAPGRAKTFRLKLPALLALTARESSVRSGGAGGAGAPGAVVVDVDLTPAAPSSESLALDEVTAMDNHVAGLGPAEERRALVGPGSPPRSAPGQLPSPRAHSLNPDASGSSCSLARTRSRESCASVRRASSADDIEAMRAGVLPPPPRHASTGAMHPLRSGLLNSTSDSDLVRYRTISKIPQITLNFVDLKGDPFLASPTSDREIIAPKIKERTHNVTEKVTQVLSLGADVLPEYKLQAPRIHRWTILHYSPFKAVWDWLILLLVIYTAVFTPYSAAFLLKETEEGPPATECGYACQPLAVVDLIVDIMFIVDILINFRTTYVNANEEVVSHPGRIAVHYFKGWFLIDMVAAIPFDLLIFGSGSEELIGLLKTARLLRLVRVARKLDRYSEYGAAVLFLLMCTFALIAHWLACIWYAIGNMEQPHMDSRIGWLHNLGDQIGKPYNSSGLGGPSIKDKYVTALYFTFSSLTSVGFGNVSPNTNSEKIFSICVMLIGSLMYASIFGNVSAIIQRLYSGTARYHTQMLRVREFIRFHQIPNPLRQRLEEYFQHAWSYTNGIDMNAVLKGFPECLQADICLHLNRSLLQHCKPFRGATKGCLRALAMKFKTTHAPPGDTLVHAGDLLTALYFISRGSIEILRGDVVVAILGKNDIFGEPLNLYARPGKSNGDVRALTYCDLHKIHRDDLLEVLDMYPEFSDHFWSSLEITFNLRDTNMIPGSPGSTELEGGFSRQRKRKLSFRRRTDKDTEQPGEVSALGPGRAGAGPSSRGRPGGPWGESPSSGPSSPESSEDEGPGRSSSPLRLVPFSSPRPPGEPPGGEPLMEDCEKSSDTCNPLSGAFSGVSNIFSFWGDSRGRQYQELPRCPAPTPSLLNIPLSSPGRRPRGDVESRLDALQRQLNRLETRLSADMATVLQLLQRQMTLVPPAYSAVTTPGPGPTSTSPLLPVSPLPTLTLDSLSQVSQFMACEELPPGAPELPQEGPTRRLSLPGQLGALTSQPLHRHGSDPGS

| SMILES | Ki (PI3Kδ; [4]) [µM] | MBI (CYP3A4) | also measured |
| --- | --- | --- | --- |
| COc1cc(N2CCc3nc(NC(=O)Nc4ccccc4C(=O)NC(C)C)sc3C2)nc(OC)n1 [Compound I-12] | ≤ 3 | (−) (When 3 μmol/L or less, the compound is shown as (−)) | Ki (PI3Kδ; read-out: PI3Kδ Ki value): 0.59 µM; BA (Rat, 1 mg/kg, Methylcellulose suspension Oral Administration) [1]: 46.8% |
| COc1cc(N2CCc3nc(NC(=O)Nc4ccccc4C(=O)NCCF)sc3C2)nc(OC)n1 [Compound I-88] | – | (−) (When 3 μmol/L or less, the compound is shown as (−)) | – |
| COc1nc(Cl)cc(N2CCc3nc(NC(=O)Nc4cnccc4C(=O)NC(C)C)sc3C2)n1 [Compound I-91] | ≤ 3 | (−) (When 3 μmol/L or less, the compound is shown as (−)) | – |
| COc1cc(N2CCc3nc(NC(=O)Nc4ccccc4C(=O)NC(C)C(O)C(F)(F)F)sc3C2)nc(OC)n1 (centres unmarked) [Compound I-139] | – | (−) (When 3 μmol/L or less, the compound is shown as (−)) | hERG(at 1 μM) % Inhibition [2]: 8.5% |
| COc1cc(N2CCc3nc(NC(=O)Nc4cn(C)nc4C(=O)NCC(F)(F)F)sc3C2)nc(OC)n1 [Compound I-148] | ≤ 0.3 | – | BA (Rat, 1 mg/kg, Methylcellulose suspension Oral Administration) [1]: 45.1% |
| Cc1nc(NC(=O)Nc2ccccc2C(=O)NC(C)C)sc1-c1csc(S(=O)(=O)N(C)CCN(C)C)c1 [Compound I-191] | – | – | solubility at 16 h [3]: > 50 µM |
| COc1cc(N2CCc3nc(NC(=O)Nc4ccccc4C(=O)NN4CCN(C)CC4)sc3C2)nc(OC)n1 [Compound I-195] | – | (−) (When 3 μmol/L or less, the compound is shown as (−)) | solubility at 16 h [3]: > 50 µM |
| COc1nc(Cl)cc(N2CCc3nc(NC(=O)Nc4ccccc4C(=O)NC4CCCOC4)sc3C2)n1 (centres unmarked) [Compound I-197] | > 3 | – | – |
| CC(C)NC(=O)c1ccccc1NC(=O)Nc1nc2c(s1)CN(c1cccc(S(C)(=O)=O)c1)CC2 [Compound I-198] | – | – | solubility at 16 h [3]: 10.1 µM (≈ 5.19 µg/mL) |
| C[C@@H](CO)NC(=O)c1ccccc1NC(=O)Nc1nc2c(s1)CN(c1cncc(S(C)(=O)=O)c1)CC2 [Compound I-211] | – | (−) (When 3 μmol/L or less, the compound is shown as (−)) | – |

The next lines start with results.

| Ki (PI3Kδ; [4]) [µM] | SMILES | MBI (CYP3A4) | also measured |
| --- | --- | --- | --- |
| ≤ 3 | COc1cncc(-c2ccc3nc(NC(=O)Nc4ccccc4OCCC(C)C)cn3n2)c1 [Compound I-114] | (−) (When 3 μmol/L or less, the compound is shown as (−)) | Ki (PI3Kδ; read-out: PI3Kδ Ki value): 2 µM |
| ≤ 0.3 | Cc1nc(NC(=O)Nc2ccccc2C(=O)NC(C)C)sc1-c1ccc(S(C)(=O)=O)c(F)c1 [Compound I-127] | – | Ki (PI3Kδ; read-out: PI3Kδ Ki value): 0.081 µM |
| > 3 | CC(C)NC(=O)c1ccccc1NC(=O)Nc1nc2c(s1)CN(c1cncc(C(F)(F)F)c1)CC2 [Compound I-131] | (−) (When 3 μmol/L or less, the compound is shown as (−)) | – |
| ≤ 3 | COc1cncc(-c2cc(NC(=O)Nc3ccccc3C(=O)NC(C)C)nn2C)c1 [Compound I-226] | (−) (When 3 μmol/L or less, the compound is shown as (−)) | – |
